Reference: ChEMBL document CHEMBL3885881, “DrugMatrix”

Species: Rattus norvegicus
Assay: DrugMatrix - Regimen: Daily Repeat
Format: toxicity, organism-based, Sprague-Dawley
Parameters: regimen Daily Repeat, gender Male, age 6-8 weeks
Conditions: in vivo, po, 30 mg/kg, route oral GAVAGE, dose level Low, vehicle 100 % WATER; for ABSOLUTE BASOPHIL / ABSOLUTE EOSINOPHIL / ABSOLUTE LYMPHOCYTE / ABSOLUTE MONOCYTE / ABSOLUTE SEGMENTED NEUTROPHIL / BASOPHIL / EOSINOPHIL / ERYTHROCYTE COUNT / HEMATOCRIT / HEMOGLOBIN / LEUKOCYTE COUNT / LYMPHOCYTE / MEAN CORPUSCULAR HEMOGLOBIN / MEAN CORPUSCULAR HEMOGLOBIN CONCENTRATION / MEAN CORPUSCULAR VOLUME / MONOCYTE / NEUTROPHIL / NUCLEATED RED BLOOD CELLS / PLATELET COUNT: tissue Blood; for ALANINE AMINOTRANSFERASE / ALBUMIN / ALKALINE PHOSPHATASE / ASPARTATE AMINOTRANSFERASE / BLOOD UREA NITROGEN / CARBON DIOXIDE / CHLORIDE / CHOLESTEROL / CREATINE PHOSPHOKINASE / CREATININE / GLUCOSE / LACTATE DEHYDROGENASE / LIPASE / PHOSPHORUS / POTASSIUM / SODIUM / TOTAL BILIRUBIN / TOTAL PROTEIN / URIC ACID: tissue Plasma

## CCCCc1nc(Cl)c(CO)n1Cc1ccc(-c2ccccc2-c2nn[nH]n2)cc1 [LOSARTAN]
72 h, time 3 day
  ABSOLUTE BASOPHIL: 0 CELLS/uL
  ABSOLUTE EOSINOPHIL: 0 CELLS/uL
  ABSOLUTE LYMPHOCYTE: 14016.67 CELLS/uL
  ABSOLUTE MONOCYTE: 389.33 CELLS/uL
  ABSOLUTE SEGMENTED NEUTROPHIL: 894 CELLS/uL
  BASOPHIL: 0%
  EOSINOPHIL: 0%
  ERYTHROCYTE COUNT: 5.45 x10E6/uL
  HEMATOCRIT: 35.03%
  HEMOGLOBIN: 13.17 G/DL
  LEUKOCYTE COUNT: 15.3 x10E3/uL
  LYMPHOCYTE: 91.33%
  MEAN CORPUSCULAR HEMOGLOBIN: 24.17 pg
  MEAN CORPUSCULAR HEMOGLOBIN CONCENTRATION: 37.6 G/DL
  MEAN CORPUSCULAR VOLUME: 64.2 fL
  MONOCYTE: 2.67%
  NEUTROPHIL: 6%
  NUCLEATED RED BLOOD CELLS: 0 /100WBC
  PLATELET COUNT: 1281.67 x10E3/uL
  ALANINE AMINOTRANSFERASE: 42 u/L
  ALBUMIN: 4.4 G/DL
  ALKALINE PHOSPHATASE: 318.67 u/L
  ASPARTATE AMINOTRANSFERASE: 77.33 u/L
  BLOOD UREA NITROGEN: 20 mg/dL
  CARBON DIOXIDE: 25 mmol/L
  CHLORIDE: 103 MEQ/L
  CHOLESTEROL: 78 mg/dL
  CREATINE PHOSPHOKINASE: 190.67 u/L
  CREATININE: 0.23 mg/dL
  GLUCOSE: 178 mg/dL
  LACTATE DEHYDROGENASE: 89.33 u/L
  LIPASE: 9.33 u/L
  PHOSPHORUS: 13.6 mg/dL
  POTASSIUM: 7.08 MEQ/L
  SODIUM: 145.07 MEQ/L
  TOTAL BILIRUBIN: 0.17 mg/dL
  TOTAL PROTEIN: 6.1 G/DL
  URIC ACID: 2.83 mg/dL
120 h, time 5 day
  ABSOLUTE BASOPHIL: 0 CELLS/uL
  ABSOLUTE EOSINOPHIL: 152.67 CELLS/uL
  ABSOLUTE LYMPHOCYTE: 13450.67 CELLS/uL
  ABSOLUTE MONOCYTE: 299.67 CELLS/uL
  ABSOLUTE SEGMENTED NEUTROPHIL: 963.67 CELLS/uL
  BASOPHIL: 0%
  EOSINOPHIL: 1.33%
  ERYTHROCYTE COUNT: 5.55 x10E6/uL
  HEMATOCRIT: 35.3%
  HEMOGLOBIN: 13.53 G/DL
  LEUKOCYTE COUNT: 14.87 x10E3/uL
  LYMPHOCYTE: 90%
  MEAN CORPUSCULAR HEMOGLOBIN: 24.37 pg
  MEAN CORPUSCULAR HEMOGLOBIN CONCENTRATION: 38.33 G/DL
  MEAN CORPUSCULAR VOLUME: 63.6 fL
  MONOCYTE: 2%
  NEUTROPHIL: 6.67%
  NUCLEATED RED BLOOD CELLS: 0.33 /100WBC
  PLATELET COUNT: 1227.33 x10E3/uL
  ALANINE AMINOTRANSFERASE: 55 u/L
  ALBUMIN: 4.43 G/DL
  ALKALINE PHOSPHATASE: 365.33 u/L
  ASPARTATE AMINOTRANSFERASE: 83.67 u/L
  BLOOD UREA NITROGEN: 26 mg/dL
  CARBON DIOXIDE: 23.67 mmol/L
  CHLORIDE: 109 MEQ/L
  CHOLESTEROL: 82 mg/dL
  CREATINE PHOSPHOKINASE: 302.33 u/L
  CREATININE: 0.19 mg/dL
  GLUCOSE: 156.67 mg/dL
  LACTATE DEHYDROGENASE: 189 u/L
  LIPASE: 9.5 u/L
  PHOSPHORUS: 12.1 mg/dL
  POTASSIUM: 6.02 MEQ/L
  SODIUM: 144.45 MEQ/L
  TOTAL BILIRUBIN: 0.0667 mg/dL
  TOTAL PROTEIN: 6.2 G/DL
  URIC ACID: 1.5 mg/dL
